The numbers were not newly measured in patent US20140220080A1, “IgA SECRETION PROMOTER” (MATSUTANI CHEMICAL INDUSTRY CO., LTD., priority 2013, published 2014), which cites them from elsewhere.

For the series, the system named is IgA. The note with it: Patent Literature 1, 2; Non-Patent Literature 1-3.

As for `OC[C@H]1O[C@@H](O[C@H]2[C@H](O)[C@@H](O)[C@@H](O[C@]3(CO)O[C@H](CO)[C@@H](O)[C@@H]3O)O[C@@H]2CO)[C@H](O)[C@@H](O)[C@H]1O` [lactosucrose], the “action of promoting IgA secretion” value was “have an action of promoting IgA secretion”.
